Reference: patent US20070197610A1, “Benzisoxazoles” (Janssen Pharmaceutica N.V., priority 2004, published 2007)

Legend:
[1] = molecular target: T1, D-amino acid oxidase (DAAO; EC 1.4.3.3) (Sus scrofa, UniProt P00371); assay: In vitro inhibition of DAAO using the peroxide method; assay type: biochemical; conditions: DAAO 2.6 μg/ml, D-Alanine 7.5 mM, 60 minutes at room temperature, absorbance at 492 nm; read-out: H2O2 method pIC50 (converted)
T1 construct: purchased Sigma
Protocol: (§1) D-amino acid oxidase (DAAO; EC 1.4.3.3) catalyzes the oxidation of D-stereo isomers of amino acids.
Two in vitro methods were developed to measure the catalytic activity of DAAO: • 1. The peroxide method: measures the amount of peroxide produced, using an auxiliary enzyme horse radish peroxidase • 2. The keto acid method: measures the ax keto acid formed
The general reaction to determine the amount of peroxide produced by catalytic action of DAAO can be described as: [drawing 36]
DAAO (2.6 μg/ml) is incubated for 60 minutes at room temperature with the substrate D-Alanine (7.5 mM) in 0.019 M sodiumpyrophosphate buffer containing FAD(5.5 μg/ml), HRP (200 μg/ml), DHBS (1667 μg/ml) and 4-aminoantipyrine(500 μg/ml) in a total volume of 50 μl. Compounds were added in a 0.5 μl volume to a final DMSO concentration of 1%. The reaction was terminated by addition of 30 μl of 0.5M phosphate buffer pH 5.0. The quinone-imine dye was detected by measuring the absorbance at 492 nm. All products were purchased from Sigma.

[2] = molecular target: T1, D-amino acid oxidase (DAAO; EC 1.4.3.3); assay: In vitro inhibition of DAAO using the keto acid method; assay type: biochemical; conditions: DAAO 20 μg/ml, D-Alanine 15 mM, 10 min at room temperature, pH 8.3, absorbance at 450 nm; read-out: keto acid method pIC50 (converted)
Protocol: as §1
Two in vitro methods were developed to measure the catalytic activity of DAAO: • 1. The peroxide method: measures the amount of peroxide produced, using an auxiliary enzyme horse radish peroxidase • 2. […]
DAAO (20 μg/ml) is incubated for 10 min at room temperature with the substrate D-Alanine (15 mM) in 0.19 mM pyrophosphatebuffer pH 8.3 containing FAD (11 μg/ml), and bovine liver catalase (EC 1.11.1.6) (4.3 mg/ml) in a total volume of 50 μl. Compounds were added in a 0.5 μl volume to a final DMSO concentration of 1%. The reaction is stopped by adding 25 μl 1 mM […] dinitrophenylhydrazine in 1N HCl, After a second 10 min incubation at room temperature, 175 μl 0.6 N NaOH is added and the formed hydrazone is detected by measuring the absorbance at 450 nm. All products were purchased from Sigma.

T1 sequence (P00371 whole entry): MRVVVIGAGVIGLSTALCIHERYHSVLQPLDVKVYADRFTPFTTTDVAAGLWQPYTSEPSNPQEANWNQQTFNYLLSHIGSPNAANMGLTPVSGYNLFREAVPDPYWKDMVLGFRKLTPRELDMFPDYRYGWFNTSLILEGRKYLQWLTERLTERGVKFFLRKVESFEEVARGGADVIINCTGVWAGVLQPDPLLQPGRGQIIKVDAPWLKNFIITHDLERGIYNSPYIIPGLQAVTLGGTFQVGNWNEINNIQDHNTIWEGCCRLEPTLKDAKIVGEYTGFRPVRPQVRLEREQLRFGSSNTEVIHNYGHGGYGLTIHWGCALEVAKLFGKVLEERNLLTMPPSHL

Row | SMILES | melting point [°C] | IC50 [1] [µM] | IC50 [2] [µM]
1 | COc1ccc2c(O)noc2c1 | 208 | – | –
2 | COc1ccc2c(=O)n(C(=O)NC(C)C)oc2c1 [Compound 1] | 121 | – | –
3 | O=C(/N=c1/c2ccccc2on1C(=O)c1ccccc1)c1ccccc1 [Compound 10] | 97 to 100 | – | –
4 | Cc1onc(-c2c(Cl)cccc2Cl)c1C(=O)Oc1noc2ccc(Cl)cc12 [Compound 17] | – | 0.631 | 1
5 | Cc1cc(C(=O)Oc2noc3cc(Cl)ccc23)no1 [Compound 18] | – | 0.0316 | 0.126
6 | Cc1ccc2onc(OC(=O)c3cc(C)on3)c2c1 [Compound 19] | 126 to 128 | 3.98 | 5.01
7 | Cc1onc(-c2c(Cl)cccc2Cl)c1NC(=O)n1oc2ccc(Cl)cc2c1=O [Compound 21] | – | 0.631 | 1
8 | CNC(=O)n1oc2ccc(Cl)cc2c1=O [Compound 22] | – | 0.631 | 0.794
9 | CC(C)NC(=O)n1oc2ccc(Cl)cc2c1=O [Compound 23] | – | 0.794 | 1
10 | CCCNC(=O)n1oc2ccc(Cl)cc2c1=O [Compound 25] | – | 0.631 | 0.794
11 | Cc1ccc2on(C(=O)NC(C)(C)C)c(=O)c2c1 [Compound 26] | – | 3.16 | 2
12 | CC(C)(C)NC(=O)n1oc2cc(Cl)ccc2c1=O [Compound 27] | – | 0.0501 | 0.2
13 | Cc1ccc2on(C(=O)NC(C)C)c(=O)c2c1 [Compound 28] | – | 3.98 | 2
14 | CC(C)NC(=O)n1oc2ccccc2c1=O [Compound 29] | – | – | 3.98
